Like-named read-outs stand apart in the source and are kept apart here.
Tested on: HCT-116 Firefly-luciferase reporter cells
Experiment: Cellular c-MYC Reporter Assay
Format: cell-based
Details: Homo sapiens, read-out: pIC50 (converted)
Method in brief: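 Compound exposure lasted 24 h at 37 °C, 5% CO2, in complete McCoy's 5A medium containing 0.2% DMSO, beginning 4–6 h post-seeding (5e4 cells/mL). Firefly luciferase signal measured by luminescence after 10 min ONE-Glo development at room temperature.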

[1] = untitled table following Table 8a, HCT-116 Firefly-luciferase reporter cells, 24 h

SMILES	IC50 [1]	IC50 (HCT-116, 24 h)
CNC(=O)c1cccnc1N(C(=O)c1ccc(-n2nnc3cccnc32)cc1F)[C@@H]1CCCNC1 [Example 213, (R)-2-(4-(3H-[1,2,3]triazolo[4,5-b]pyridin-3-yl)-2-fluoro-N-(piperidin-3-yl)benzamido)-N-methylnicotinamide]	646 nM	–
Cc1cccc2ccnc(N(C(=O)c3ccc(-c4cnn5cccnc45)cc3F)[C@@H]3CCCNC3)c12 [Example 215, (R)-2-fluoro-N-(8-methylisoquinolin-1-yl)-N-(piperidin-3-yl)-4-(pyrazolo[1,5-a]pyrimidin-3-yl)benzamide]	269 nM	–
CCc1ccc2nnn(-c3ccc(C(=O)N(c4nccc5cccc(C)c45)[C@@H]4CCCNC4)c(F)c3)c2n1 [Example 216, (R)-4-(5-ethyl-3H-[1,2,3]triazolo[4,5-b]pyridin-3-yl)-2-fluoro-N-(8-methylisoquinolin-1-yl)-N-(piperidin-3-yl)benzamide]	437 nM	–
Cc1cccc2ccnc(N(C(=O)c3c(F)cc(-n4nnc5cccnc54)cc3F)[C@@H]3CCCNC3)c12 [Example 218, (R)-4-(3H-[1,2,3]triazolo[4,5-b]pyridin-3-yl)-2,6-difluoro-N-(8-methylisoquinolin-1-yl)-N-(piperidin-3-yl)benzamide]	43.7 nM	–
Cc1cccc2ccnc(N(C(=O)c3ccc(N4CCOCC4)cc3)[C@@H]3CCCNC3)c12 [Example 219, (R)—N-(8-methylisoquinolin-1-yl)-4-morpholino-N-(piperidin-3-yl)benzamide]	6310 nM	–
O=C(c1ccc(-n2nnc3cccnc32)cc1F)N(c1nccc2cccc(C(F)(F)F)c12)[C@@H]1CCCNC1 [Example 221, (R)-4-(3H-[1,2,3]triazolo[4,5-b]pyridin-3-yl)-2-fluoro-N-(piperidin-3-yl)-N-(8-(trifluoromethyl)isoquinolin-1-yl)benzamide]	2000 nM	–
COc1cccc2ccnc(N(C(=O)c3ccc(-n4nnc5cccnc54)cc3F)[C@@H]3CCCNC3)c12 [Example 222, (R)-4-(3H-[1,2,3]triazolo[4,5-b]pyridin-3-yl)-2-fluoro-N-(8-methoxyisoquinolin-1-yl)-N-(piperidin-3-yl)benzamide]	93.3 nM	–
Cc1cccc2ccnc(N(C(=O)c3ccc(-n4nnc5ccccc54)cc3)[C@@H]3CCCNC3)c12 [Example 223, (R)-4-(1H-benzo[d][1,2,3]triazol-1-yl)-N-(8-methylisoquinolin-1-yl)-N-(piperidin-3-yl)benzamide]	214 nM	–
Cc1cccc2ccnc(N(C(=O)c3ccc(-n4nnc5cccnc54)cc3)[C@H]3CNCC[C@@H]3C)c12 [Example 224, 4-(3H-[1,2,3]triazolo[4,5-b]pyridin-3-yl)-N-(8-methylisoquinolin-1-yl)-N-((3R,4S)-4-methylpiperidin-3-yl)benzamide]	> 20000 nM	–
Cc1cccc2ccnc(N(C(=O)c3ccc(-n4nnc5cccnc54)cc3)[C@H]3CNC[C@@H](C)C3)c12 [Example 225, 4-(3H-[1,2,3]triazolo[4,5-b]pyridin-3-yl)-N-(8-methylisoquinolin-1-yl)-N-((3R,5S)-5-methylpiperidin-3-yl)benzamide]	4790 nM	–
Cc1cccc2ccnc(N(C(=O)c3ccc(-n4nnc5cccnc54)cc3)[C@@H]3CC[C@@H](C)NC3)c12 [Example 226, 4-(3H-[1,2,3]triazolo[4,5-b]pyridin-3-yl)-N-(8-methylisoquinolin-1-yl)-N-((3R,6R)-6-methylpiperidin-3-yl)benzamide]	> 20000 nM	–
Cc1cccc2ccnc(N(C(=O)c3ccc(-n4nnc5cccnc54)cc3)[C@H]3CCCCNC3)c12 [Example 227, (S)-4-(3H-[1,2,3]triazolo[4,5-b]pyridin-3-yl)-N-(azepan-3-yl)-N-(8-methylisoquinolin-1-yl)benzamide]	> 20000 nM	–
Cc1cccc2ccnc(N(C(=O)c3ccc(-n4nnc5cccnc54)cc3)[C@H]3CCCNCC3)c12 [Example 228, (S)-4-(3H-[1,2,3]triazolo[4,5-b]pyridin-3-yl)-N-(azepan-4-yl)-N-(8-methylisoquinolin-1-yl)benzamide]	–	> 20000 nM
Cc1cccc2ccnc(N(C(=O)c3ccc(-n4nnc5cccnc54)cc3)[C@@H]3CCCNCC3)c12 [Example 229, (R)-4-(3H-[1,2,3]triazolo[4,5-b]pyridin-3-yl)-N-(azepan-4-yl)-N-(8-methylisoquinolin-1-yl)benzamide]	–	15100 nM
Cc1cccc2ccnc(N(C(=O)c3ccc(-n4nnc5cccnc54)cc3)[C@H]3CCNC3)c12 [Example 231, (S)-4-(3H-[1,2,3]triazolo[4,5-b]pyridin-3-yl)-N-(8-methylisoquinolin-1-yl)-N-(pyrrolidin-3-yl)benzamide]	> 20000 nM	–
Cc1cccc2ccnc(N(C(=O)c3ccc(-n4nnc5cccnc54)cc3)[C@@H]3CCNC3)c12 [Example 232, (R)-4-(3H-[1,2,3]triazolo[4,5-b]pyridin-3-yl)-N-(8-methylisoquinolin-1-yl)-N-(pyrrolidin-3-yl)benzamide]	8510 nM	–
Cc1cccc2ccnc(N(C(=O)c3ccc(-c4cccnc4)cc3)[C@@H]3CCCNC3)c12 [Example 233, (R)—N-(8-methylisoquinolin-1-yl)-N-(piperidin-3-yl)-4-(pyridin-3-yl)benzamide]	708 nM	–

SMILES	IC50 [1]	IC50 (HCT-116, 24 h)
Cc1cccc2ccnc(N(C(=O)c3ccc(-n4ncnn4)cc3)[C@@H]3CCCNC3)c12 [Example 234, (R)—N-(8-methylisoquinolin-1-yl)-N-(piperidin-3-yl)-4-(2H-tetrazol-2-yl)benzamide]	–	398 nM
Cc1cccc2ccnc(N(C(=O)c3ccc(-n4nccn4)cc3)[C@@H]3CCCNC3)c12 [Example 235, (R)—N-(8-methylisoquinolin-1-yl)-N-(piperidin-3-yl)-4-(2H-1,2,3-triazol-2-yl)benzamide]	8510 nM	–
Cc1cn(-c2ccc(C(=O)N(c3nccc4cccc(C)c34)[C@@H]3CCCNC3)cc2)nn1 [Example 236, (R)-4-(4-methyl-1H-1,2,3-triazol-1-yl)-N-(8-methylisoquinolin-1-yl)-N-(piperidin-3-yl)benzamide]	166 nM	–
Cc1cccc2ccnc(N(C(=O)c3ccc(-c4cccnn4)cc3)[C@@H]3CCCNC3)c12 [Example 237, (R)—N-(8-methylisoquinolin-1-yl)-N-(piperidin-3-yl)-4-(pyridazin-3-yl)benzamide]	589 nM	–
Cc1cccc2ccnc(N(C(=O)c3ccc(-c4cnccn4)cc3)[C@@H]3CCCNC3)c12 [Example 238, (R)—N-(8-methylisoquinolin-1-yl)-N-(piperidin-3-yl)-4-(pyrazin-2-yl)benzamide]	240 nM	–
Cc1cccc2ccnc(N(C(=O)c3ccc(-c4cnn(C)c4)cc3)[C@@H]3CCCNC3)c12 [Example 239, (R)-4-(1-methyl-1H-pyrazol-4-yl)-N-(8-methylisoquinolin-1-yl)-N-(piperidin-3-yl)benzamide]	437 nM	–
Cc1cccc2ccnc(N(C(=O)c3ccc(-n4nnc5cccnc54)cc3)[C@@H]3CCCNC3)c12 [Example 241, (R)-4-(3H-[1,2,3]triazolo[4,5-b]pyridin-3-yl)-N-(8-methylisoquinolin-1-yl)-N-(piperidin-3-yl)benzamide]	60.3 nM	–
Cc1cccc2ccnc(N(C(=O)c3ccc(-n4nnc5cccnc54)cc3F)[C@@H]3CCCNC3)c12 [Example 242, (R)-4-(3H-[1,2,3]triazolo[4,5-b]pyridin-3-yl)-2-fluoro-N-(8-methylisoquinolin-1-yl)-N-(piperidin-3-yl)benzamide]	38 nM	–
Cc1cccc2ccnc(N(C(=O)c3ccc(-n4nnc5cccnc54)cn3)[C@@H]3CCCNC3)c12 [Example 244, (R)-5-(3H-[1,2,3]triazolo[4,5-b]pyridin-3-yl)-N-(8-methylisoquinolin-1-yl)-N-(piperidin-3-yl)picolinamide]	107 nM	–
Cc1cccc2ccnc(N(C(=O)c3ccc(-n4nnc5cccnc54)nc3)[C@@H]3CCCNC3)c12 [Example 245, (R)-6-(3H-[1,2,3]triazolo[4,5-b]pyridin-3-yl)-N-(8-methylisoquinolin-1-yl)-N-(piperidin-3-yl)nicotinamide]	155 nM	–
O=C(c1ccc(-n2nnc3cccnc32)cc1F)N(c1nccc2cccc(Cl)c12)[C@@H]1CCCNC1 [Example 246, (R)-4-(3H-[1,2,3]triazolo[4,5-b]pyridin-3-yl)-N-(8-chloroisoquinolin-1-yl)-2-fluoro-N-(piperidin-3-yl)benzamide]	33.1 nM	–
CN(C)C(=O)c1cccnc1N(C(=O)c1ccc(-n2nnc3cccnc32)cc1F)[C@@H]1CCCNC1 [Example 247, (R)-2-(4-(3H-[1,2,3]triazolo[4,5-b]pyridin-3-yl)-2-fluoro-N-(piperidin-3-yl)benzamido)-N,N-dimethylnicotinamide]	5010 nM	–
Cn1cnc2ccnc(N(C(=O)c3ccc(-n4nnc5cccnc54)cc3F)[C@@H]3CCCNC3)c21 [Example 248, (R)-4-(3H-[1,2,3]triazolo[4,5-b]pyridin-3-yl)-2-fluoro-N-(3-methyl-3H-imidazo[4,5-c]pyridin-4-yl)-N-(piperidin-3-yl)benzamide]	851 nM	–
O=C(c1ccc(-n2nnc3cccnc32)cc1F)N(c1nccc2ncccc12)[C@@H]1CCCNC1 [Example 249, (R)-4-(3H-[1,2,3]triazolo[4,5-b]pyridin-3-yl)-2-fluoro-N-(1,6-naphthyridin-5-yl)-N-(piperidin-3-yl)benzamide]	1410 nM	–
Cc1cccc2ccnc(N(C(=O)N3CCC(c4cc(C(F)F)no4)CC3)[C@@H]3CCCNC3)c12 [Example 250, (R)-4-(3-(difluoromethyl)isoxazol-5-yl)-N-(8-methylisoquinolin-1-yl)-N-(piperidin-3-yl)piperidine-1-carboxamide]	813 nM	–
Cc1cn(-c2ccc(C(=O)N(c3nccc4cccc(C)c34)[C@@H]3CCCNC3)c(F)c2)nn1 [Example 251, (R)-2-fluoro-4-(4-methyl-1H-1,2,3-triazol-1-yl)-N-(8-methylisoquinolin-1-yl)-N-(piperidin-3-yl)benzamide]	67.6 nM	–
